Values joined by “and” are separate entries in the source; they are usually repeats but may differ in a detail not shown here. Identical values can stand only once.
Columns and labels:
AurB = biological target: T1, AurB (Homo sapiens, UniProt Q96GD4); assay: Protein kinase inhibitory assay, AurB; format: biochemical; conditions: 10 μM test compound
T1 construct: purchased ThermoFisher Scientific
Method: (§1) Cell culture media EMEM and DMEM, fetal bovine serum (FBS), L-glutamine, and antibiotics were from Sigma-Aldrich St. Louis, MO, USA). Vemurafenib was purchased from Selleckchem (Munich, Germany). Human recombinant protein kinases and Protein kinase assay kits were from ThermoFisher Scientific (MA, US). Plastics were supplied by Sarstedt (Verona, Italy).
(§2) Inhibitory assays were performed in accordance with a previously reported procedure, standardized for RET and VEGFR2[28],[41]. Test compounds were dissolved in 100% DMSO and diluted to the appropriate concentrations with the reaction buffer, provided by the kit. […] The inhibitory effect of the novel compounds was routinely estimated at 10 μM concentration.

A2058 cell line = assay: Proliferation assay, A2058 melanoma cells (single agents and combination, Chou-Talalay); format: cell-based, human; conditions: for Dose Reduction Index (DRI) 6a + vemurafenib: DRI of each drug in the combination
Method: (§3) Compound 6a, merging the best inhibitory profile against the target c-Kit/AurB kinases, was tested on the human A2058 (American Type Culture Collection, Manassas, USA) and WM266-4 (European Collection of Authenticated Cell Cultures, Salisbury, UK) cell lines, chosen as representative of BRAF-mutated melanoma cell lines, to investigate its anti-proliferative efficacy. […]. Vemurafenib, the BRAF V600E inhibitor currently used for the treatment of inoperable, metastatic melanoma, was used as the reference compound. […] The level of possible interaction between the two kinase inhibitors, synergistic, additive or antagonist in nature, was determined by the method of Chou-Talaly[38] and quantitated through the combination index (CI), calculated exploiting the following multiple drug-effect Eq. (1)1 CI=[(D)1/(Dx)1]+[(D)2/(Dx)2] and referred to as synergism, additive effect and antagonism when CI < 1, CI = 1 and CI > 1, respectively.
(§4) The Dose Reduction Index (DRI) was calculated as well, to assess the theoretical magnitude of concentration reduction allowed for the two drugs when given in synergistic combination in vitro to achieve the same effect as that obtained with the concentration of each single agent. DRI was calculated by the following Eq. (2):2 (DRI)=(Dx)/(D)
(§5) Test compounds 6a and vemurafenib were dissolved in a stock solution of 10 mM in 100% dimethylsulfoxide (DMSO) for in vitro studies. DMSO concentration in the control’s media was the same used to make up the highest concentration of test compounds in growth media for the same experiment. In vitro chemosensitivity was tested on melanoma WM266-4 and A2058 cell lines. Cells were grown in EMEM and DMEM media, respectively, plated in sterile 24-well plastic plates and treated for 72 h (using 10^3 cells/well in 1 mL of medium) with added 6a (range of 1–100 μM), or vemurafenib (0.0001–100 μM) alone. The synergistic effect between 6a and vemurafenib was calculated with the method of Chou-Talaly[38] based on the multiple drug-effect equation and quantitated by the combination index (CI) and the dose reduction index (DRI), where CI < 1 and DRI > 1 indicate synergism. At the end of the experiment, cells were harvested with trypsin/EDTA, and viable cells were quantified using the automatic cell counter ADAM MC Digital B (Twin Helix, Milano, Italy). The data are presented as the percentage of vehicle-treated cells. […] All experiments were repeated independently three times with at least nine samples for each concentration.

WM266-4 cell line = assay: Proliferation assay, WM266-4 melanoma cells (single agents and combination, Chou-Talalay); format: cell-based, human; conditions: for Dose Reduction Index (DRI) 6a + vemurafenib: DRI of each drug in the combination
Method: as §3, §4, §5

AurC = biological target: T2, AurC (Homo sapiens, UniProt Q9UQB9); assay: Protein kinase inhibitory assay, AurC; format: biochemical; conditions: 10 μM test compound
T2 construct: purchased ThermoFisher Scientific
T2 sequence (Q9UQB9 1-309): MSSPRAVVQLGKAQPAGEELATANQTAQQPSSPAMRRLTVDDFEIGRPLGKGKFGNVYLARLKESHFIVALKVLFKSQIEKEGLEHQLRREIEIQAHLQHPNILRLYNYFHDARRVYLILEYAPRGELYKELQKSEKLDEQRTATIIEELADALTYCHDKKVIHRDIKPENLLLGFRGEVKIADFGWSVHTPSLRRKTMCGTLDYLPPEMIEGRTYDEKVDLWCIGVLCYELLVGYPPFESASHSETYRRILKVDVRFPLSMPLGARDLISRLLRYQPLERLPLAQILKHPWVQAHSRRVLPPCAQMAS
Method: as §1, §2

c-Kit phosphorylation = biological target: T3, c-Kit phosphorylation (Homo sapiens, UniProt P10721); assay: c-Kit phosphorylation ELISA assay in melanoma cells; format: cell-based; conditions: WM266-4 and A2058 cells, 6a 10 μM, 72 h, vs vehicle-treated
T3 construct: endogenous in cells; host or cells: WM266-4 and A2058 human melanoma cells
T3 sequence (P10721 26-976): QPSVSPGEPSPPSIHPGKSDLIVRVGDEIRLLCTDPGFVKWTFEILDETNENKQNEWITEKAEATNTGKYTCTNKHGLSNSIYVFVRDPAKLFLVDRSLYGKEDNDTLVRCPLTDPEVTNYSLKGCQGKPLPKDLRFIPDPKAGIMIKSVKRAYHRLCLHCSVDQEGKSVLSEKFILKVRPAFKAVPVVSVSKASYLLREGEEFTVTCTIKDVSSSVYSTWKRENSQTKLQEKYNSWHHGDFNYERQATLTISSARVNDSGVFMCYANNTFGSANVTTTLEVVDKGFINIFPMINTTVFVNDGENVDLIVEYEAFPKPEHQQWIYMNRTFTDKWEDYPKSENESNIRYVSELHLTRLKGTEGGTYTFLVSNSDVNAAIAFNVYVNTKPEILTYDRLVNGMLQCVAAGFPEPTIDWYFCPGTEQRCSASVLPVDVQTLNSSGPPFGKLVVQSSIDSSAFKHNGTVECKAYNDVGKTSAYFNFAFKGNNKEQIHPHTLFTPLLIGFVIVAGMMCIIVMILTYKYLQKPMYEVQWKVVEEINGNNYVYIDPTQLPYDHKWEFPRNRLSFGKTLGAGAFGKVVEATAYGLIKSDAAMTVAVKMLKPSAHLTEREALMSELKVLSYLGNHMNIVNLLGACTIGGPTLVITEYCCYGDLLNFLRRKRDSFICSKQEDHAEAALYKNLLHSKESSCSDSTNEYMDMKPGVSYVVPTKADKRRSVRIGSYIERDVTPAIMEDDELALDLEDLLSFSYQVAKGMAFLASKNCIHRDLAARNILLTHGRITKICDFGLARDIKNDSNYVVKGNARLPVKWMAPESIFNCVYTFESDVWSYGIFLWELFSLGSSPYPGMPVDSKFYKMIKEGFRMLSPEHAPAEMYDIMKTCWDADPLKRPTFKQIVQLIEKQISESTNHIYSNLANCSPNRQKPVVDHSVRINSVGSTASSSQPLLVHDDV
Method: (§6) WM266-4 and A2058 cells (5 × 10^4 cells/well) were treated for 72 h with compound 6a (10 μM) or with vehicle alone. To measure phospho c-Kit and phospho AurB, at the end of the experiment, the cells were harvested and immediately frozen with liquid nitrogen. Cells were then lysed and the total protein was measured. In each sample, an equal amount of proteins was then assayed for human c-Kit and AurB phosporylation by the Human Phospho-CD117/c-kit ELISA Kit (Assaysolution; Woburn, MA, USA) and the AurB (Phospho-Thr232) ELISA Kit (Aviva System Biology; San Diego, CA, USA) and normalized by total protein c-Kit and AurB concentration measured by c-Kit and AurB ELISA kits, respectively. The optical density was determined using the microplate reader Multiskan Spectrum set to 450 nm. All experiments were repeated, independently, six times with at least nine samples for each concentration. The data were expressed as the ratio of phosphorylated c-Kit or AurB/total c-Kit or AurB.

AurB phosphorylation = biological target: T4, AurB phosphorylation (Homo sapiens, UniProt Q96GD4); assay: AurB phosphorylation (Phospho-Thr232) ELISA assay in melanoma cells; format: cell-based; conditions: WM266-4 and A2058 cells, 6a 10 μM, 72 h, vs vehicle-treated
T4 construct: endogenous in cells; host or cells: WM266-4 and A2058 human melanoma cells
T4 sequence (Q96GD4 whole entry): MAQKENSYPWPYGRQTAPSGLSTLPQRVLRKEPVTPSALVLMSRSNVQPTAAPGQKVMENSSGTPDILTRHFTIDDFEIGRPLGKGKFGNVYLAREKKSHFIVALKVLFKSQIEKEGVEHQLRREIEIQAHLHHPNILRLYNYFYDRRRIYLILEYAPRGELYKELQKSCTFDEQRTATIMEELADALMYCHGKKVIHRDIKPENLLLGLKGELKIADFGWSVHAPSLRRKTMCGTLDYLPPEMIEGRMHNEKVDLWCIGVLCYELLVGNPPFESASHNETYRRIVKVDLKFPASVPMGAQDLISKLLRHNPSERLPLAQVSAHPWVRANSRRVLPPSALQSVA
Method: as §6

AurA = biological target: T5, AurA (Homo sapiens, UniProt O14965); assay: Protein kinase inhibitory assay, AurA; format: biochemical; conditions: 10 μM test compound
T5 construct: purchased ThermoFisher Scientific
T5 sequence (O14965 1-403): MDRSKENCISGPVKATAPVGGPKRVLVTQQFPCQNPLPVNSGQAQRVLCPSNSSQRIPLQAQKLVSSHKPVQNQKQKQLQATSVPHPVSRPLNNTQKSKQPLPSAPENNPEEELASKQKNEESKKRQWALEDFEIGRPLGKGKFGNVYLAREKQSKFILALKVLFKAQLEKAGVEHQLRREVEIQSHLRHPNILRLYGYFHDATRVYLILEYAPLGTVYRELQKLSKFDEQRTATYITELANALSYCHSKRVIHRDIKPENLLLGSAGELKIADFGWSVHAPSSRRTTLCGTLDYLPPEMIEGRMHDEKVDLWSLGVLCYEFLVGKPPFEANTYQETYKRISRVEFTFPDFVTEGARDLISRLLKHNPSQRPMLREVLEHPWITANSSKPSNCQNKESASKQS

[1] = A2058, affected cell fraction 75%
[2] = A2058, affected cell fraction 85%
[3] = WM266-4, affected cell fraction 75%
[4] = WM266-4, affected cell fraction 85%
[5] = WM266-4, affected cell fraction 95%

T1 sequence (Q96GD4 whole entry): as the sequence (Q96GD4 whole entry) above

SMILES	percentage of kinase inhibition, AurB (AurB)	percentage of kinase inhibition, AurA (AurA)	Dose Reduction Index (DRI) 6a + vemurafenib (A2058 cell line; [1])	Dose Reduction Index (DRI) 6a + vemurafenib (A2058 cell line; [2])	Dose Reduction Index (DRI) 6a + vemurafenib (WM266-4 cell line; [3])	Dose Reduction Index (DRI) 6a + vemurafenib (WM266-4 cell line; [4])	Dose Reduction Index (DRI) 6a + vemurafenib (WM266-4 cell line; [5])	also measured
CCCS(=O)(=O)Nc1ccc(F)c(C(=O)c2c[nH]c3ncc(-c4ccc(Cl)cc4)cc23)c1F [vemurafenib]			21.8	22.2	1.1	1.2	1.4	Dose Reduction Index (DRI) 6a + vemurafenib (A2058 cell line; A2058, affected cell fraction 95%): 22.9
O=C(Nc1ccccc1)Nc1ccc(SCc2n[nH]c(-c3ccccc3)n2)cc1 [Compound 6a, 1-phenyl-3-(4-(((3-phenyl-1H-1,2,4-triazol-5-yl)methyl)thio)phenyl)urea]		most active of the synthesized series	494.1	429.0	374.9	272.1	150 and 147.9	IC50 (A2058 cell line; Homo sapiens, A2058, BRAF V600D, 72 h exposure, read-out: IC50 antiproliferative activity): 11.4 µM; percentage of kinase inhibition, AurC (AurC): most effective of the whole series; inhibition of c-Kit phosphorylation (ratio phosphorylated c-Kit/total c-Kit) (c-Kit phosphorylation): significant inhibition of c-Kit phosphorylation; IC50 (WM266-4 cell line; Homo sapiens, WM 266-4, WM266-4, BRAF V600E, 72 h exposure, read-out: IC50 antiproliferative activity): 9.65 µM; quantity of the phosphorylated form of AurB (ratio phosphorylated AurB/total AurB) (AurB phosphorylation): weakly reduced
CN(C)c1ccc(NC(=O)Nc2ccc(SCc3n[nH]c(-c4ccc(Cl)cc4)n3)cc2)cc1 [Compound 6e]	no inhibitory activity	no inhibitory activity						

More lines, main results first:

percentage of kinase inhibition, AurB (AurB)	percentage of kinase inhibition, AurA (AurA)	SMILES	Dose Reduction Index (DRI) 6a + vemurafenib (A2058 cell line; [1])	Dose Reduction Index (DRI) 6a + vemurafenib (A2058 cell line; [2])	Dose Reduction Index (DRI) 6a + vemurafenib (WM266-4 cell line; [3])	Dose Reduction Index (DRI) 6a + vemurafenib (WM266-4 cell line; [4])	Dose Reduction Index (DRI) 6a + vemurafenib (WM266-4 cell line; [5])	also measured
no inhibitory activity		COc1ccc(NC(=O)Nc2ccc(SCc3n[nH]c(-c4ccc(Br)cc4)n3)cc2)cc1OC [Compound 6h]						
	no inhibitory activity	O=C(Nc1ccc(SCc2n[nH]c(-c3ccc(Br)cc3)n2)cc1)Nc1ccc(C(F)(F)F)cc1 [Compound 6g]						
